Measured values taken from patent publication US20080009418A1, “Selective Inhibitors” (Alchemia LTD., priority 2004, published 2008).

Columns and labels:
Settings in all cases: compound at 10 μM
[1] = target: T1, Human neuropeptide Y (NPY-Y1) (Homo sapiens, UniProt P25929); test: Radioligand binding, human neuropeptide Y NPY-Y1 membranes, FlashPlate, [125I]-PYY
T1 construct: purchased Perkin Elmer Biosignal
T1 sequence (P25929 1-384): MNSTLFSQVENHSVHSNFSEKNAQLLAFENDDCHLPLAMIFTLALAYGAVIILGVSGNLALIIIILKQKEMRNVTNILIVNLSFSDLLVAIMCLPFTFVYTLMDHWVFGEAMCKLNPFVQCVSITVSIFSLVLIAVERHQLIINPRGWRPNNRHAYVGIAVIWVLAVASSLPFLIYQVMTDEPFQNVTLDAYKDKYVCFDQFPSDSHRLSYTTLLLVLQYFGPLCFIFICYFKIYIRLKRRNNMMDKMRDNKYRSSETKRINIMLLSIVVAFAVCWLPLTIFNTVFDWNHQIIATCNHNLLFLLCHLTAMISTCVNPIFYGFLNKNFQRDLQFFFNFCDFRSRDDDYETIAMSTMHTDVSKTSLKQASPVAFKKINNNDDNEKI
Summary of the method: (§1)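 Cloned human receptor membranes were coated onto FlashPlate wells and incubated with radioligand and compound (added from a 0.5 mM DMSO daughter plate) for 1 hour at room temperature in the dark. Scintillation counting gave percent inhibition, with DMSO defining total and reference ligand defining non-specific binding.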

Mouse urotensin (mUR2) = target: T2, Mouse urotensin (mUR2) (Mus musculus, UniProt Q8VIH9); test: Radioligand binding, mouse urotensin mUR2 membranes, FlashPlate, [125I]-Urotensin II
T2 construct: purchased Perkin Elmer Biosignal
T2 sequence (Q8VIH9 1-385): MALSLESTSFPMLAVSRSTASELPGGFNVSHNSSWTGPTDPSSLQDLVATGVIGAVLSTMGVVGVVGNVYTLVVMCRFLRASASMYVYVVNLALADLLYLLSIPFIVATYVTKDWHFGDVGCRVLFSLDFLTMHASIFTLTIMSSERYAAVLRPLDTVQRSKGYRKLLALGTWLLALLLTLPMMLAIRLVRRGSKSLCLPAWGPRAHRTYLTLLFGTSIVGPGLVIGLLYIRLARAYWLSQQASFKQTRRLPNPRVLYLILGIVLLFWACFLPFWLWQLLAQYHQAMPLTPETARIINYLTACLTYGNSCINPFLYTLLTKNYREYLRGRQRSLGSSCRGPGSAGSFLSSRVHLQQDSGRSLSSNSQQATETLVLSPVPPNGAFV
Summary of the method: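 Cloned mouse urotensin (mUR2) receptor membranes from Perkin Elmer Biosignal were immobilized in FlashPlate microplates using a proprietary coating. Each well got 19.5 μl buffer, then 0.5 μl of DMSO, reference ligand, or compound. Adding 5 μl of [125I]-Urotensin II, diluted to 5× final concentration in binding buffer, started binding. Plates were sealed with TopSeal-A and incubated 1 hour at room temperature in the dark. Wells were counted for 30 seconds each on a TopCount after a 60-second delay, and percentage inhibition was calculated.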

Human opioid (ORL1) = target: T3, Human opioid (ORL1) (Homo sapiens, UniProt P41146); test: Radioligand binding, human opioid ORL1 membranes, FlashPlate, [125I]-Nociceptin
T3 construct: purchased Perkin Elmer Biosignal
T3 sequence (P41146 whole entry): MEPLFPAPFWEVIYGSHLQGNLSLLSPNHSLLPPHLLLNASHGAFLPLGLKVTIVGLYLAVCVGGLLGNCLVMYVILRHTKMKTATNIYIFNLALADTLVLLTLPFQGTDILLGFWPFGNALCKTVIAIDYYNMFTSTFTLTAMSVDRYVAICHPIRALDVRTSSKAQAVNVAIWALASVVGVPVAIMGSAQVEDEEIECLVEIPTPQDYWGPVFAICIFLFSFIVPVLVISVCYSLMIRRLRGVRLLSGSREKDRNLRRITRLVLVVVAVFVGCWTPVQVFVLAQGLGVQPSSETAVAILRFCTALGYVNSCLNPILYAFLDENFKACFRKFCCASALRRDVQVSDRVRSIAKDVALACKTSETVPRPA
Summary of the method: as §1

Human Melanocortin (MC3) = target: T4, Human Melanocortin (MC3) (Homo sapiens, UniProt P41968); test: Radioligand binding, human melanocortin MC3 membranes, FlashPlate, [125I]-NDP-αMSH
T4 construct: purchased Perkin Elmer Biosignal
T4 sequence (P41968 whole entry): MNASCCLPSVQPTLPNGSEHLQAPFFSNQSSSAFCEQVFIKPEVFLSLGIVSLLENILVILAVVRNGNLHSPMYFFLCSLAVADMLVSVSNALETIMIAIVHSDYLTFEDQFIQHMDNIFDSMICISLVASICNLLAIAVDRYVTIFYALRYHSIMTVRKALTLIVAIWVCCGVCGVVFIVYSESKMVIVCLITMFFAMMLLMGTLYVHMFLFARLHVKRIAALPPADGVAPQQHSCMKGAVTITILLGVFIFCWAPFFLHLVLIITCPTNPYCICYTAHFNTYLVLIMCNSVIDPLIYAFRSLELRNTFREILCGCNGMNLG
Summary of the method: as §1

[2] = target: T5, Human melanin-concentrating hormone (MCH1) (Homo sapiens, UniProt Q99705); test: Radioligand binding, human melanin-concentrating hormone MCH1 membranes, FlashPlate, [125I]-S36057
T5 construct: purchased Perkin Elmer Biosignal
T5 sequence (Q99705 whole entry): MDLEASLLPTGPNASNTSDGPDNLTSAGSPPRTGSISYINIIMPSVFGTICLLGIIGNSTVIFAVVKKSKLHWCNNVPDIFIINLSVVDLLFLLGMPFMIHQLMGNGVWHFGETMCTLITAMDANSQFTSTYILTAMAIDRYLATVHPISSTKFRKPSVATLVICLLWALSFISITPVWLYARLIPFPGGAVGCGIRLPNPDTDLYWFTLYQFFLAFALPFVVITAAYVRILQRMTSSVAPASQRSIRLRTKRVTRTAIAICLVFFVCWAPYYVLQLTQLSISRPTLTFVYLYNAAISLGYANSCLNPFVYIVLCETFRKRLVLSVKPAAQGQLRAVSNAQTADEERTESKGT
Summary of the method: as §1

Human melanocortin (MC5) = target: T6, Human melanocortin (MC5) (Homo sapiens, UniProt P33032); test: Radioligand binding, human melanocortin MC5 membranes, FlashPlate, [125I]-NDP-αMSH
T6 construct: purchased Perkin Elmer Biosignal
T6 sequence (P33032 whole entry): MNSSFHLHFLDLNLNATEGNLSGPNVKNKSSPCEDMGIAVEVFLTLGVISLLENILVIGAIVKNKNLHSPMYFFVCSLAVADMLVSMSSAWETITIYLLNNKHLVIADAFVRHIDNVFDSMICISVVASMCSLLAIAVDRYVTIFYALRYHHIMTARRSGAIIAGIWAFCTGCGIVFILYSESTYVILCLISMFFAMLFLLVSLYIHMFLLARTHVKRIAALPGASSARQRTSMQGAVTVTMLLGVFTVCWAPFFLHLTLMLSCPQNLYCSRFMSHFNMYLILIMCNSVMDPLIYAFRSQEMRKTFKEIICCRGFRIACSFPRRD
Summary of the method: as §1

Human μ-opioid (MOP) = target: T7, Human μ-opioid (MOP) (Homo sapiens, UniProt P35372); test: Radioligand binding, human μ-opioid (MOP) membranes, FlashPlate, [3H]-Naloxone
T7 construct: purchased Perkin Elmer Biosignal
T7 sequence (P35372 whole entry): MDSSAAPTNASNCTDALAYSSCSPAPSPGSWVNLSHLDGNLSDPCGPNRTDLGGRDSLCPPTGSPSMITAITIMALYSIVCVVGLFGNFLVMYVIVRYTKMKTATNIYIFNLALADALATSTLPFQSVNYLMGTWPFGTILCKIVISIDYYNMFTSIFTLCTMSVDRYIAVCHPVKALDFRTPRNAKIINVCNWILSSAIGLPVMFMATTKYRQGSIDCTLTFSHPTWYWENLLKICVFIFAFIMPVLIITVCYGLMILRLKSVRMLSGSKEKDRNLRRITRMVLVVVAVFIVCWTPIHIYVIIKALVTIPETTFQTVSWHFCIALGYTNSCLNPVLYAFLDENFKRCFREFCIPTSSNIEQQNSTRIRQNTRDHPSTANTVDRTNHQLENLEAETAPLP
Summary of the method: as §1

Human κ-Opioid (KOP) = target: T8, Human κ-Opioid (KOP) (Homo sapiens, UniProt P41145); test: Radioligand binding, human κ-opioid (KOP) membranes, filtration, [3H]-Diprenorphine
T8 construct: purchased Perkin Elmer Biosignal
T8 sequence (P41145 whole entry): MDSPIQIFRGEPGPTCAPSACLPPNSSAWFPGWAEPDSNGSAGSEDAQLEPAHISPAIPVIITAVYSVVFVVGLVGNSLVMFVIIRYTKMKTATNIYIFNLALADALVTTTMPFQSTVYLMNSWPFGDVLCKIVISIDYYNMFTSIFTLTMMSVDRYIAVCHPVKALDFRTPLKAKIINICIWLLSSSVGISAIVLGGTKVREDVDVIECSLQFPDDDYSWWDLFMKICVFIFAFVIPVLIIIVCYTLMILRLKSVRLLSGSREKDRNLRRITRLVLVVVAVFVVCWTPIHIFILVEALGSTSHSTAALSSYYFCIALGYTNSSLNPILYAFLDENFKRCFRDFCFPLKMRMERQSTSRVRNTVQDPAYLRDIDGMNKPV
Summary of the method: (§2)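 Membranes from cloned human receptors were incubated with compound and radioligand for 1 hour at room temperature. Bound ligand was collected on 0.3% PEI-soaked filters, washed with cold 50 mM Tris-HCl pH 7.4, and counted by scintillation. Percent inhibition was computed against DMSO totals and reference-ligand nonspecific wells.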

Human neurokinin (NK1) = target: T9, Human neurokinin (NK1) (Homo sapiens, UniProt P25103); test: Radioligand binding, human neurokinin NK1 membranes, filtration, [125I]-Substance P
T9 construct: purchased Perkin Elmer Biosignal
T9 sequence (P25103 whole entry): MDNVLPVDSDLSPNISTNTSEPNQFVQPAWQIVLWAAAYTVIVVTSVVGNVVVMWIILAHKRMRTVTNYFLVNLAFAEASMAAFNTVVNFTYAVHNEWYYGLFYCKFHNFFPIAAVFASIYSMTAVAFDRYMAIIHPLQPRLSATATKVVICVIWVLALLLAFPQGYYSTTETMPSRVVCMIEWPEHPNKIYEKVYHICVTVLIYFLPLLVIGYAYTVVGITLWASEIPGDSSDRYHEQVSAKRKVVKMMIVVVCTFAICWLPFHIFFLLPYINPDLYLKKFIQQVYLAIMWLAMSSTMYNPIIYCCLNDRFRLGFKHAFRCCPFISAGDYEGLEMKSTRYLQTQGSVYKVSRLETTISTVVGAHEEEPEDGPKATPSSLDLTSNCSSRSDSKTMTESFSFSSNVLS
Summary of the method: as §2

Human δ-opioid (DOP) = target: T10, Human δ-opioid (DOP) (Homo sapiens, UniProt P41143); test: Radioligand binding, human δ-opioid (DOP) membranes, FlashPlate, [3H]-Bremazocine
T10 construct: purchased Perkin Elmer Biosignal
T10 sequence (P41143 whole entry): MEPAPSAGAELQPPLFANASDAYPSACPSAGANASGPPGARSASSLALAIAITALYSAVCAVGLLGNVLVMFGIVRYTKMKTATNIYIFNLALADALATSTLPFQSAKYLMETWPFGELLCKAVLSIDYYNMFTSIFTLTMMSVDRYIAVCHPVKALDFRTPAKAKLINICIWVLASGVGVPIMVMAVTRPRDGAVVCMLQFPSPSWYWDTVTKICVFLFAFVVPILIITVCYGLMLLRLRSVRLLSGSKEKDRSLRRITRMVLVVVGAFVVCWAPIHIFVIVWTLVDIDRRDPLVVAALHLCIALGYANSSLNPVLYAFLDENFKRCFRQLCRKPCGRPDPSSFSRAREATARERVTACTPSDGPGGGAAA
Summary of the method: as §1

Human Melanocortin (MC4) = target: T11, Human Melanocortin (MC4) (Homo sapiens, UniProt P32245); test: Radioligand binding, human melanocortin MC4 membranes, FlashPlate, [125I]-NDP-αMSH
T11 construct: purchased Perkin Elmer Biosignal
T11 sequence (P32245 whole entry): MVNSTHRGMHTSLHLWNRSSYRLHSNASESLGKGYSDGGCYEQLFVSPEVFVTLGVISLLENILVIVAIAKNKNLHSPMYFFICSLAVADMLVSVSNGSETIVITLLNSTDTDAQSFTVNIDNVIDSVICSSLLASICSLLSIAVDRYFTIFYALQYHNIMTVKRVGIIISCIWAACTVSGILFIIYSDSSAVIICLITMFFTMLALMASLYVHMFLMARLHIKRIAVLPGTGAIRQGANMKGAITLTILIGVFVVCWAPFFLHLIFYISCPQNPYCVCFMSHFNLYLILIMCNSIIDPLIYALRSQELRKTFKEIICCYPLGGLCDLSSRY
Summary of the method: as §1

## CO[C@H]1[C@H](O)[C@@H](COCc2ccc(-c3ccccc3)cc2)OC(OCc2ccc(-c3ccccc3)cc2)[C@@H]1NC(=O)CCCNC(=N)N (stereo partly shown) [compound 54]
[1]; human NPY-Y1 membranes
  A9 radioligand binding inhibition: − (“−” indicates less than 50% inhibition at 10 μM)
Mouse urotensin (mUR2); mouse urotensin mUR2 membranes
  A11 radioligand binding inhibition: − (“−” indicates less than 50% inhibition at 10 μM)
Human opioid (ORL1); human ORL1 membranes
  A10 radioligand binding inhibition: + (“+” indicates greater than 50% inhibition at 10 μM)
Human Melanocortin (MC3); human melanocortin MC3 membranes
  A3 radioligand binding inhibition: + (“+” indicates greater than 50% inhibition at 10 μM)
[2]; human MCH1 membranes
  A6 radioligand binding inhibition: + (“+” indicates greater than 50% inhibition at 10 μM)
Human melanocortin (MC5); human melanocortin MC5 membranes
  A5 radioligand binding inhibition: + (“+” indicates greater than 50% inhibition at 10 μM)
Human μ-opioid (MOP); human μ-opioid (MOP) membranes
  A7 radioligand binding inhibition: + (“+” indicates greater than 50% inhibition at 10 μM)
Human κ-Opioid (KOP); human κ-opioid (KOP) membranes
  A2 radioligand binding inhibition: − (“−” indicates less than 50% inhibition at 10 μM)
Human neurokinin (NK1); human neurokinin NK1 membranes
  A8 radioligand binding inhibition: + (“+” indicates greater than 50% inhibition at 10 μM)
Human δ-opioid (DOP); human δ-opioid (DOP) membranes
  A1 radioligand binding inhibition: − (“−” indicates less than 50% inhibition at 10 μM)
Human Melanocortin (MC4); human melanocortin MC4 membranes
  A4 radioligand binding inhibition: + (“+” indicates greater than 50% inhibition at 10 μM)

## CO[C@H]1[C@H](O)[C@@H](COCc2ccc(-c3ccccc3)cc2)OC(OCc2cccc(O)c2)[C@@H]1NC(=O)CCNC(=N)N (stereo partly shown) [compound 163]
[1]; [125I]-PYY
  A9 radioligand binding, percentage inhibition: − (“−” indicates less than 50% inhibition at 10 μM)
Mouse urotensin (mUR2); [125I]-Urotensin II
  A11 radioligand binding, percentage inhibition: − (“−” indicates less than 50% inhibition at 10 μM)
Human opioid (ORL1); [125I]-Nociceptin
  A10 radioligand binding, percentage inhibition: − (“−” indicates less than 50% inhibition at 10 μM)
Human Melanocortin (MC3); [125I]-NDP-αMSH
  A3 radioligand binding, percentage inhibition: + (“+” indicates greater than 50% inhibition at 10 μM)
[2]; [125I]-S36057
  A6 radioligand binding, percentage inhibition: − (“−” indicates less than 50% inhibition at 10 μM)
Human melanocortin (MC5); [125I]-NDP-αMSH
  A5 radioligand binding, percentage inhibition: + (“+” indicates greater than 50% inhibition at 10 μM)
Human μ-opioid (MOP); [3H]-Naloxone
  A7 radioligand binding, percentage inhibition: − (“−” indicates less than 50% inhibition at 10 μM)
Human κ-Opioid (KOP); [3H]-Diprenorphine
  A2 radioligand binding, percentage inhibition: − (“−” indicates less than 50% inhibition at 10 μM)
Human neurokinin (NK1); [125I]-Substance P
  A8 radioligand binding, percentage inhibition: + (“+” indicates greater than 50% inhibition at 10 μM)
Human δ-opioid (DOP); [3H]-Bremazocine
  A1 radioligand binding, percentage inhibition: − (“−” indicates less than 50% inhibition at 10 μM)
Human Melanocortin (MC4); [125I]-NDP-αMSH
  A4 radioligand binding, percentage inhibition: + (“+” indicates greater than 50% inhibition at 10 μM)

## N=C(N)NCC(=O)NC1C(OCc2ccc(Cl)cc2)OC(COCc2ccccc2)C(O)C1OCc1ccc(Cl)cc1 (single isomer, unassigned) [compound 510]
[1]; [125I]-PYY
  A9: inhibition of radioligand binding, human neuropeptide Y (NPY-Y1): − (“−” indicates less than 50% inhibition at 10 μM)
Mouse urotensin (mUR2); [125I]-Urotensin II
  A11: inhibition of radioligand binding, mouse urotensin (mUR2): − (“−” indicates less than 50% inhibition at 10 μM)
Human opioid (ORL1); [125I]-Nociceptin, 10 µM
  A10: inhibition of radioligand binding, human opioid (ORL1): + (“+” indicates greater than 50% inhibition at 10 μM)
Human Melanocortin (MC3); [125I]-NDP-αMSH, 10 µM
  A3: inhibition of radioligand binding, human melanocortin (MC3): + (“+” indicates greater than 50% inhibition at 10 μM)
[2]; [125I]-S36057
  A6: inhibition of radioligand binding, human melanin-concentrating hormone (MCH1): + (“+” indicates greater than 50% inhibition at 10 μM)
Human melanocortin (MC5); [125I]-NDP-αMSH
  A5: inhibition of radioligand binding, human melanocortin (MC5): + (“+” indicates greater than 50% inhibition at 10 μM)
Human μ-opioid (MOP); [3H]-Naloxone, 10 µM
  A7: inhibition of radioligand binding, human μ-opioid (MOP): − (“−” indicates less than 50% inhibition at 10 μM)
Human κ-Opioid (KOP); [3H]-Diprenorphine
  A2: inhibition of radioligand binding, human κ-opioid (KOP): − (“−” indicates less than 50% inhibition at 10 μM)
Human neurokinin (NK1); [125I]-Substance P
  A8: inhibition of radioligand binding, human neurokinin (NK1): + (“+” indicates greater than 50% inhibition at 10 μM)
Human δ-opioid (DOP); [3H]-Bremazocine
  A1: inhibition of radioligand binding, human δ-opioid (DOP): − (“−” indicates less than 50% inhibition at 10 μM)
Human Melanocortin (MC4); [125I]-NDP-αMSH
  A4: inhibition of radioligand binding, human melanocortin (MC4): + (“+” indicates greater than 50% inhibition at 10 μM)

## N=C(N)NCCCC(=O)NC1C(OCc2ccc(-c3ccccc3)cc2)OC(COCc2ccccc2)C(O)C1OCc1ccccc1 (stereo not shown) [compound 435]
[1]; [125I]-PYY, human NPY-Y1 membranes
  A9: inhibition of radioligand binding: − (“−” indicates less than 50% inhibition at 10 μM)
Mouse urotensin (mUR2); [125I]-Urotensin II, mouse mUR2 membranes
  A11: inhibition of radioligand binding: − (“−” indicates less than 50% inhibition at 10 μM)
Human opioid (ORL1); [125I]-Nociceptin, human ORL1 membranes
  A10: inhibition of radioligand binding: + (“+” indicates greater than 50% inhibition at 10 μM)
Human Melanocortin (MC3); [125I]-NDP-αMSH, human MC3 membranes
  A3: inhibition of radioligand binding: + (“+” indicates greater than 50% inhibition at 10 μM)
[2]; [125I]-S36057, human MCH1 membranes
  A6: inhibition of radioligand binding: + (“+” indicates greater than 50% inhibition at 10 μM)
Human melanocortin (MC5); [125I]-NDP-αMSH, human MC5 membranes
  A5: inhibition of radioligand binding: + (“+” indicates greater than 50% inhibition at 10 μM)
Human μ-opioid (MOP); [3H]-Naloxone, human MOP membranes
  A7: inhibition of radioligand binding: + (“+” indicates greater than 50% inhibition at 10 μM)
Human κ-Opioid (KOP); [3H]-Diprenorphine, human KOP membranes
  A2: inhibition of radioligand binding: + (“+” indicates greater than 50% inhibition at 10 μM)
Human neurokinin (NK1); [125I]-Substance P, human NK1 membranes
  A8: inhibition of radioligand binding: + (“+” indicates greater than 50% inhibition at 10 μM)
Human δ-opioid (DOP); [3H]-Bremazocine, human DOP membranes
  A1: inhibition of radioligand binding: − (“−” indicates less than 50% inhibition at 10 μM)
Human Melanocortin (MC4); [125I]-NDP-αMSH, human MC4 membranes
  A4: inhibition of radioligand binding: + (“+” indicates greater than 50% inhibition at 10 μM)

## CO[C@H]1[C@H](O)[C@@H](COCc2ccc(Cl)cc2)OC(OCCc2ccccc2)[C@@H]1NC(=O)CCCN (stereo partly shown) [compound 121]
[1]; [125I]-PYY
  A9 radioligand binding, percentage inhibition: − (“−” indicates less than 50% inhibition at 10 μM)
Mouse urotensin (mUR2); [125I]-Urotensin II
  A11 radioligand binding, percentage inhibition: − (“−” indicates less than 50% inhibition at 10 μM)
Human opioid (ORL1); [125I]-Nociceptin
  A10 radioligand binding, percentage inhibition: − (“−” indicates less than 50% inhibition at 10 μM)
Human Melanocortin (MC3); [125I]-NDP-αMSH
  A3 radioligand binding, percentage inhibition: − (“−” indicates less than 50% inhibition at 10 μM)
[2]; [125I]-S36057
  A6 radioligand binding, percentage inhibition: − (“−” indicates less than 50% inhibition at 10 μM)
Human melanocortin (MC5); [125I]-NDP-αMSH
  A5 radioligand binding, percentage inhibition: + (“+” indicates greater than 50% inhibition at 10 μM)
Human μ-opioid (MOP); [3H]-Naloxone
  A7 radioligand binding, percentage inhibition: − (“−” indicates less than 50% inhibition at 10 μM)
Human κ-Opioid (KOP); [3H]-Diprenorphine
  A2 radioligand binding, percentage inhibition: − (“−” indicates less than 50% inhibition at 10 μM)
Human neurokinin (NK1); [125I]-Substance P
  A8 radioligand binding, percentage inhibition: + (“+” indicates greater than 50% inhibition at 10 μM)
Human δ-opioid (DOP); [3H]-Bremazocine
  A1 radioligand binding, percentage inhibition: − (“−” indicates less than 50% inhibition at 10 μM)
Human Melanocortin (MC4); [125I]-NDP-αMSH
  A4 radioligand binding, percentage inhibition: − (“−” indicates less than 50% inhibition at 10 μM)
